Target: Granzyme B (human lymphocytes) (Homo sapiens (Human), UniProt P10144)
Experiment: human Granzyme B biochemical assay
Settings: Granzyme B (human lymphocytes) 5 nM, substrate Ac-IETD-AFC 200 μM, Cpd incubation with enzyme 30 mins, 22° C., read time 60 mins; read-out: IC50
Source text: The compounds of Formula I-VIII described above can be tested using the human Granzyme B biochemical assay provided below.
Materials: • 1. Granzyme B (human lymphocytes) Enzyme: Enzo Lifesciences, Cat #ALX-200-602-0010 • 2. Substrate (Ac-IETD-AFC): Enzo Lifesciences, Cat #ALX-260-110-M010 • 3. Standard inhibitor (Compound 20-Isomer3): Synthesized internally in TCG • 4. Dimethyl sulfoxide (DMSO): Sigma-Aldrich, Cat #41639 • 5. HEPES: Gibco, Cat #15630-080 • 6. Calcium chloride: Sigma-Aldrich, Cat #C-5080 • 7. Distilled water: Gibco, Cat #15230-162 • 8. Bovine serum albumin (BSA): Sigma-Aldrich, Cat #A3059 • 9. Black, clear bottom PDL plate (384 wells): Greiner bio-one, Cat #781946 • 10. Polypropylene plate (384 wells): Corning, Cat #3657 Assay Buffer Composition:
Compound Preparation: • 1. DMSO is added to the respective compound vial to make 10 mM Compound stock solution, which is stored at −20° C. • 2. 10 mM Compound stock solution is thawed and 1 mM DMSO stock solution is prepared by adding 45 μl of DMSO to 5 μl of 10 mM compound stock solution. • 3. 1 mM DMSO stock solution is serially diluted (3.16 fold) by adding 10 μl of 1 mM DMSO stock to 21.6 μl of DMSO and mixed well. 10 μl of the resulting solution is then added to 21.6 μl of DMSO and mixed well. This process is continued to create 11 dilution points for the assay standard inhibitor and 8 dilution points for test compounds in 384 well polypropylene plate. • 4. 2 μl of each dilution are dispensed in assay ready plate. • 5. Each well is then diluted 25 fold by adding 48 μl of assay buffer to 2 μl of compound in assay ready plate to make Compound working stock. Enzyme Preparation: • 1. Supplied Granzyme B (human lymphocytes) enzyme is reconstituted to 1 mg/ml (about 31.25 μM) and 1 μl aliquots are kept in −80° C. • 2. 1 μl aliquot is diluted to 625 nM by adding 49 μl of assay buffer containing 0.1% BSA and gently mixed. • 3. 10 nM enzyme working stock is prepared by adding assay buffer containing 0.1% BSA. Substrate Preparation: • 1. Supplied substrate (Ac-IETD-AFC) is reconstituted by adding DMSO to make 10 mM stock, aliquoted and stored in −80° C. • 2. 4 mM substrate mid stock is prepared by adding DMSO. • 3. Substrate working stock i.e. 800 μM is prepared by adding assay buffer. Assay Protocol: • 1. 10 μl of serially diluted Compound working stock (start dose 40 μM) is added from assay ready plate to assay plate according to the plate map. • 2. Positive control (40 μM of standard inhibitor) and negative control (4% DMSO buffer) are added to the respective wells. • 3. 20 μl of Enzyme working stock is added to assay plate and gently mixed. • 4. The plate is incubated at 22° C. for 30 mins and spun at 130 g for 1 minute. • 5. After incubation, 10 μl of Substrate working stock is added to respective wells and mixed (Assay plate is maintained in dark after substrate addition). • 6. The plate is incubated at 22° C. for 60 mins and spun at 130 g for 1 minute. • 7. Fluorescence read (RFU) (Ex: 400 nm/Em: 505 nm) is taken after 60 mins in EnVision Multimode plate reader. Final Assay Concentration:
Data Analysis: • 1. The RFU read is analyzed to calculate percent inhibition by normalizing with positive and negative controls taken as 100% and 0% effect respectively in Microsoft excel. • 2. Graph is generated by putting the analyzed data in GraphPad prism 5.0 software to get IC50 value for each compound.

Granzyme B (human lymphocytes), sequence (P10144 21-247): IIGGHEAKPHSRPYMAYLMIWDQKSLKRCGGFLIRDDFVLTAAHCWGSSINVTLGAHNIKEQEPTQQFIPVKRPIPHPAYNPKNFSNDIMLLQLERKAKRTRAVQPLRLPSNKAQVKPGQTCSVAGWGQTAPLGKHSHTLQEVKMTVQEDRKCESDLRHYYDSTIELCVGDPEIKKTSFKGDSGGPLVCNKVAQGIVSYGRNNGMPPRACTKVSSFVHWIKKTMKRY

Row | Structure (SMILES) | IC50
1 | CC[C@H](C)[C@H](NC(=O)COCCF)C(=O)N[C@H]1CCc2cccc3c2N(C1=O)[C@H](C(=O)NCc1cccnc1)C3 [Compound C122, (2S,5S)-5-{(2S,3S)-2-[2-(2-Fluoro-ethoxy)-acetylamino]-3-methyl-pentanoylamino}-4-oxo-1,2,4,5,6,7-hexahydro-azepino[3,2,1-hi]indole-2-carboxylic acid (pyridin-3-ylmethyl)-amide] | > 5000 nM
2 | CC(=O)N[C@H](C(=O)N[C@H]1CCc2cccc3c2N(C1=O)[C@H](C(=O)N[C@@H](CC(=O)O)C(=O)O)C3)C(C)C [Compound C092, (S)-2-{[(2S,5S)-5-((S)-2-Acetylamino-3-methyl-butyrylamino)-4-oxo-1,2,4,5,6,7-hexahydro-azepino[3,2,1-hi]indole-2-carbonyl]-amino}-succinic acid] | > 5000 nM
3 | O=C(N[C@@H](Cc1ccc(O)cc1)C(=O)N[C@H]1CCc2cccc3c2N(C1=O)[C@H](C(=O)NCc1c[nH]nn1)C3)c1ccccc1 [Compound C042, (2S,5S)-5-[(S)-2-Benzoylamino-3-(4-hydroxy-phenyl)-propionylamino]-4-oxo,2,4,5,6,7-hexahydro-azepino[3,2,1-hi]indole-2-carboxylic acid (1H-[1,2,3]triazol-4-ylmethyl)-amide] | > 5000 nM
4 | CC[C@H](C)[C@H](NC(=O)COCCF)C(=O)N[C@H]1CCc2cccc3c2N(C1=O)[C@H](C(=O)NCc1cccc(C)c1)C3 [Compound C128, (2S,5S)-5-{(2S,3S)-2-[2-(2-Fluoro-ethoxy)-acetylamino]-3-methyl-pentanoylamino}-4-oxo-1,2,4,5,6,7-hexahydro-azepino[3,2,1-hi]indole-2-carboxylic acid 3-methyl-benzylamide] | > 5000 nM
5 | COC(=O)[C@@H](C)NC(=O)[C@@H]1Cc2cccc3c2N1C(=O)[C@@H](NC(=O)[C@@H](NC(C)=O)C(C)C)CC3 [Compound C088, (R)-2-{[(2S,5S)-5-((S)-2-Acetylamino-3-methyl-butyrylamino)-4-oxo-1,2,4,5,6,7-hexahydro-azepino[3,2,1-hi]indole-2-carbonyl]-amino}-propionicacid methyl ester] | > 5000 nM
6 | COC(=O)CNC(=O)[C@@H]1Cc2cccc3c2N1C(=O)[C@@H](NC(=O)[C@@H](NC(C)=O)C(C)C)CC3 [Compound C086, {[(2S,5S)-5-((S)-2-Acetylamino-3-methyl-butyrylamino)-4-oxo-1,2,4,5,6,7-hexahydro-azepino[3,2,1-hi]indole-2-carbonyl]-amino}-acetic acid methyl ester] | > 5000 nM
7 | O=C(Cc1ccccc1)N[C@H](C(=O)N[C@H]1CCc2cccc3c2N(C1=O)[C@H](C(=O)NCc1c[nH]nn1)C3)c1ccccc1 [Compound C020, (2S,5S)-4-Oxo-5-((S)-2-phenyl-2-phenylacetylamino-acetylamino)-1,2,4,5,6,7-hexahydro-azepino[3,2,1-hi]indole-2-carboxylic acid (1H-[1,2,3]triazol-4-ylmethyl)-amide] | > 5000 nM

Further lines, results first:

Row | IC50 | Structure (SMILES)
8 | 1 to 300 nM | COc1ccc(C(=O)N[C@H](C(=O)N[C@H]2CCc3cccc4c3N(C2=O)[C@H](C(=O)NCc2c[nH]nn2)C4)C(C)C)cc1 [Compound C065, (2S,5S)-5-[(S)-2-(4-Methoxy-benzoylamino)-3-methyl-butyrylamino]-4-oxo-1,2,4,5,6,7-hexahydro-azepino[3,2,1-hi]indole-2-carboxylic acid (1H-[1,2,3]triazol-4-ylmethyl)-amide]
9 | 1 to 300 nM | CC(C)[C@H](NC(=O)c1ccccn1)C(=O)N[C@H]1CCc2cccc3c2N(C1=O)[C@H](C(=O)NCc1c[nH]nn1)C3 [Compound C069, (2S,5S)-5-{(S)-3-Methyl-2-[(pyridine-2-carbonyl)-amino]-butyrylamino}-4-oxo-1,2,4,5,6,7-hexahydro-azepino[3,2,1-hi]indole-2-carboxylic acid (1H-[1,2,3]triazol-4-ylmethyl)-amide]
10 | > 5000 nM | CC[C@H](C)[C@H](NC(=O)COCCF)C(=O)N[C@H]1CCc2cccc3c2N(C1=O)[C@H](C(=O)NCc1ccn[nH]1)C3 [Compound C149, (2S,5S)-5-{(2S,3S)-2-[2-(2-Fluoro-ethoxy)-acetylamino]-3-methyl-pentanoylamino}-4-oxo-1,2,4,5,6,7-hexahydro-azepino[3,2,1-hi]indole-2-carboxylic acid (2H-pyrazol-3-ylmethyl)-amide]
11 | > 5000 nM | CC[C@H](C)[C@H](NC(=O)COCCF)C(=O)N[C@H]1CCc2cccc3c2N(C1=O)[C@H](C(=O)NCc1ncn[nH]1)C3 [Compound C163, (2S,5S)-5-{(2S,3S)-2-[2-(2-Fluoro-ethoxy)-acetylamino]-3-methyl-pentanoylamino}-4-oxo-1,2,4,5,6,7-hexahydro-azepino[3,2,1-hi]indole-2-carboxylic acid (2H-[1,2,4]triazol-3-ylmethyl)-amide]
12 | > 5000 nM | CC[C@H](C)[C@H](NC(=O)COCCF)C(=O)N[C@H]1CCc2cccc3c2N(C1=O)[C@H](C(=O)NCc1cnsc1)C3 [Compound C118, (2S,5S)-5-{(2S,3S)-2-[2-(2-Fluoro-ethoxy)-acetylamino]-3-methyl-pentanoylamino}-4-oxo-1,2,4,5,6,7-hexahydro-azepino[3,2,1-hi]indole-2-carboxylic acid (isothiazol-4-ylmethyl)-amide]
13 | 1 to 300 nM | CC[C@H](C)[C@H](NC(=O)Cc1ccccc1)C(=O)N[C@H]1CCc2cccc3c2N(C1=O)[C@H](C(=O)NCc1c[nH]nn1)C3 [Compound C017, (2S,5S)-5-((2S,3S)-3-Methyl-2-phenylacetylamino-pentanoylamino)-4-oxo-1,2,4,5,6,7-hexahydro-azepino[3,2,1-hi]indole-2-carboxylic acid(1H-[1,2,3]triazol-4-ylmethyl)-amide]
14 | 1 to 300 nM | CC(C)[C@H](NC(=O)Cc1ccccc1)C(=O)N[C@H]1CCc2cccc3c2N(C1=O)[C@H](C(=O)NCc1c[nH]nn1)C3 [Compound C014, (2S,5S)-5-((S)-3-Methyl-2-phenylacetylamino-butyrylamino)-4-oxo-1,2,4,5,6,7-hexahydro-azepino[3,2,1-hi]indole-2-carboxylic acid (1H-[1,2,3]triazol-4-ylmethyl)-amide]
15 | 1 to 300 nM | CC(C)[C@H](NC(=O)c1cccc(F)c1)C(=O)N[C@H]1CCc2cccc3c2N(C1=O)[C@H](C(=O)NCc1c[nH]nn1)C3 [Compound C048, (2S,5S)-5-[(S)-2-(3-Fluoro-benzoylamino)-3-methyl-butyrylamino]-4-oxo-1,2,4,5,6,7-hexahydro-azepino[3,2,1-hi]indole-2-carboxylic acid (1H-[1,2,3]triazol-4-ylmethyl)-amide]
16 | 301 to 1000 nM | CC(C)[C@H](NC(=O)c1ccccc1F)C(=O)N[C@H]1CCc2cccc3c2N(C1=O)[C@H](C(=O)NCc1c[nH]nn1)C3 [Compound C049, (2S,5S)-5-[(S)-2-(2-Fluoro-benzoylamino)-3-methyl-butyrylamino]-4-oxo-1,2,4,5,6,7-hexahydro-azepino[3,2,1-hi]indole-2-carboxylic acid (1H-[1,2,3]triazol-4-ylmethyl)-amide]
17 | 301 to 1000 nM | CC[C@H](C)[C@H](NC(=O)COCCF)C(=O)N[C@H]1CCc2cccc3c2N(C1=O)[C@H](C(=O)NCB(O)O)C3 [Compound C170, {[((2S,5S)-5-{(2S,3S)-2-[2-(2-Fluoro-ethoxy)-acetylamino]-3-methyl-pentanoylamino}-4-oxo-1,2,4,5,6,7-hexahydro-azepino[3,2,1-hi]indole-2-carbonyl)-amino]-methyl}-boronic acid]
